Source: patent US7128897B2, “Aerosolized anti-infectives, anti-inflammatories, and decongestants for the treatment of sinusitis” (Naryx Pharma, Inc., priority 1999, dated 2006)

Tests used:
sinusitis = type: in vivo, human; conditions: for efficacy of nose drop: nose drop (tobramycin 80 mg/ml; Mupirocin calcium 2%)
Experimental: A person had been suffering from sinusitis for most of their adult life. These sinusitis episodes seemed to be triggered by allergies. They historically had three-four (3–4) episodes of sinusitis each year, which were treated with oral antibiotics for four-eight (4–8) weeks per episode. These oral antibiotic regimens produced yeast infections, which were treated with Diflucan® (fluconazole). Relief from the headaches, malaise, facial pressure and pain, yellow-green nasal discharge, coughing and fever took up to six weeks and were treated with narcotic and non narcotic analgesics, decongestants, decongestant nasal sprays, cough suppressants, and nasal rinses. Their allergies were treated with antihistamines and anti-inflammatory agents. In an effort to reduce the duration of their sinusitis episodes, a nose drop of tobramycin 80 mg/ml was administered. […] The medication was irritating; and in order to administer the drops and try to get them into the sinus cavity, the patient had to hold their head back. This caused intolerable pain resulting in the discontinuation of the therapy. A nose drop of Bactoban® (Mupirocin calcium 2%) was tried. […] In order to eliminate the pain caused by holding their head back when administering nose drops, a nose drop of tobramycin was administered after the patient had been on oral antibiotics for a period of time.

paranasal sinusitis = conditions: 4 ml of 3% FOM solution; ultrasonic-type nebulizer compared with jet-type; cited from earlier work
[1] = test system: clinical isolates from sinusitis patients; conditions: one percent (1%) solution used with a nebulizer; cited from earlier work
sinus infection = experiment: Nebulized antibiotic treatment of sinusitis patients (case reports, Patients A, B, C); type: in vivo, human; conditions: for time to "dumping" of green, purulent nasal discharge: nebulized three times daily
Experimental: Thereafter, a preparation of tobramycin 80 mg/ml was administered using 3 ml in a Pari LC Star® nebulizer cup with adult mask attached and a Pari Proneb® compressor. The medication was nebulized three (3) times daily. After four days of therapy, the patient experienced a “dumping” of green, purulent nasal discharge. The therapy was continued for a total of seven (7) days. […] Another seven (7) day regimen of nebulized tobramycin was given to the patient.
A preparation of cefuroxime 285 mg in 2.5 ml sterile water for injection was administered three (3) times daily using a Pari LC Star® nebulizer cup with adult mask attached and a Pari Proneb® compressor. […] After one day of therapy, a Pari Turbo® compressor was substituted for the Pari Proneb® compressor. The patient experienced a “dumping” of green, purulent nasal discharge after (3) days of therapy.
After the seven (7) days of treatment with nebulized cefuroxime using the Pari Turbo® compressor and the Pari LC Star® nebulizer cup with mask, the patient has remained free of sinus infections for nine (9) months. They have continued to experience problems with their allergies, and while in the past these allergies triggered sinus infections, this time no such infection has recurred.
A person had been experiencing sinus infections off and on during their adult life. They were treated with cefuroxime 285 mg in 2.5 ml of sterile water for injection three (3) times daily using a Pari LC Star® nebulizer cup with adult mask attached and a Pari Turbo® compressor. The patient experienced a “dumping” of green, purulent nasal discharge after eight (8) treatments. The therapy was continued for a total of seven (7) days. No other antibiotics were given. This patient has been free from sinus infections for six (6) months.
They were treated with cefuroxime 285 mg in 2.5 ml of sterile water for injection three (3) times daily using a Pari LC Star® nebulizer cup with adult mask attached and a Pari Turbo® compressor. The patient experienced a “dumping” of green, purulent nasal discharge after eight (8) treatments. The therapy was continued form a total of seven (7) days. No other antibiotics were given. This patient has been free from sinus infections for six (6) months.

refractory sinusitis = conditions: large particle saline aerosol therapy with tobramycin added; cited from earlier work
[2] = Patient A, second 7 day regimen of nebulized tobramycin

C/C(=C\C(=O)OCCCCCCCCC(=O)[O-])C[C@@H]1OC[C@H](C[C@@H]2O[C@H]2[C@@H](C)[C@H](C)O)[C@@H](O)[C@H]1O.C/C(=C\C(=O)OCCCCCCCCC(=O)[O-])C[C@@H]1OC[C@H](C[C@@H]2O[C@H]2[C@@H](C)[C@H](C)O)[C@@H](O)[C@H]1O.O.O.[Ca+2] [Bactoban, Mupirocin calcium]
efficacy of nose drop (sinusitis; Patient A): not efficacious

C[C@@H]1O[C@@H]1P(=O)(O)O [FOM, fosfomycin]
delivery to maxillary sinus surface, ultrasonic-type vs jet-type nebulizer (paranasal sinusitis): higher concentration of FOM to the maxillary sinus surface

CO/N=C(\C(=O)N[C@@H]1C(=O)N2C(C(=O)O)=C(CSc3nnnn3C)CS[C@H]12)c1csc(N)n1 [cefmenoxime]
minimum inhibitory concentrations [1]: minimum inhibitory concentrations were lower

CO/N=C(\C(=O)N[C@@H]1C(=O)N2C(C(=O)O)=C(COC(N)=O)CS[C@H]12)c1ccco1 [cefuroxime, Cefuroxime]
adverse event during nebulized therapy (sinus infection; Patient A, 285 mg in 2.5 ml nebulized three times daily, 7 days): contracted a yeast infection
time free of sinus infections after treatment (sinus infection; Patient A, 285 mg in 2.5 ml nebulized three times daily, 7 days, Pari Turbo compressor): 9 months
time to "dumping" of green, purulent nasal discharge (sinus infection; Patient A): 3 days
number of treatments until "dumping" of green, purulent nasal discharge (sinus infection; Patient B, 285 mg in 2.5 ml nebulized three times daily): 8 treatments
time free from sinus infections after treatment (sinus infection; Patient B, 285 mg in 2.5 ml nebulized three times daily, 7 days): 6 months
number of treatments until "dumping" of green, purulent nasal discharge (sinus infection; Patient C, 285 mg in 2.5 ml nebulized three times daily): 8 treatments
time free from sinus infections after treatment (sinus infection; Patient C, 285 mg in 2.5 ml nebulized three times daily, 7 days): 6 months

NC[C@H]1O[C@H](O[C@H]2[C@H](O)[C@@H](O[C@H]3O[C@H](CO)[C@@H](O)[C@H](N)[C@H]3O)[C@H](N)C[C@@H]2N)[C@H](N)C[C@@H]1O [tobramycin, Tobramycin]
efficacy of nose drop (sinusitis; Patient A): did not seem to work
efficacy of nose drop given after oral antibiotics (sinusitis; Patient A, nose drop after a period on oral antibiotics): did not seem to work
tolerability of nose drop (sinusitis; human, in vivo): irritating
benefit of addition to saline aerosol (refractory sinusitis): minimal benefit
relapse after first seven day regimen (sinus infection; Patient A, first 7 day regimen of nebulized tobramycin): relapse was experienced within a month
time to "dumping" of green, purulent nasal discharge (sinus infection; Patient A): four
outcome after second seven day regimen (sinus infection; [2]): sinus infection seemed to be eliminated
time to recurrence after second seven day regimen (sinus infection; [2]): ≤ 2 months
outcome after first seven day regimen (sinus infection; Patient A, tobramycin 80 mg/ml, 3 ml nebulized three times daily, 7 days): sinus infection had been eliminated
